Experimental data reported in paper PMC8364686, “Safety, tolerability, pharmacokinetics and pharmacodynamics of single oral doses of BI 187004, an inhibitor of 11beta-hydroxysteroid dehydrogenase-1, in healthy male volunteers with overweight or obesity” (Clinical Diabetes and Endocrinology, 2021).
Where two headings read alike, the source gives them in different places.

Assay: BI 187004 concentration in subcutaneous adipose tissue biopsies (LC–MS/MS)
Type: in vivo, human
Conditions: for Kp at 10 h / Kp at 24 h / concentration at 10 h / concentration at 24 h: male, human, oral; for Kp at 10 h: read-out: AT:plasma ratio (range) 10 h; for Kp at 24 h: read-out: AT:plasma ratio (range) 24 h; for concentration at 10 h: read-out: AT C10 gMean (range); for concentration at 24 h: read-out: AT C24 gMean (range)
Method: The assay was qualified for the BI 187004 concentration range of 2.5—10,000 ng/g. The BI 187004 AT concentration data for study samples were generated from seven analytical runs. For each run, the acceptance criteria for the calibration standards and QC samples were met. Acceptance criteria for all sample analysis runs were ≤ 25% RSD (relative standard deviation / precision) and ± 25% RE (relative error / accuracy) for calibration standards and quality control samples.

SMILES: N#Cc1ccc2c(c1)[C@H]1CCCN(C(=O)c3ccc4[nH]cnc4c3)[C@H]1C2 [BI 187004]
- AT:plasma ratio (range) 24 h (10 mg single dose, 24 h, only range printed): – (9.58 – 20.1)
- AT C24 gMean (range) (10 mg single dose, adipose tissue, 24 h, only range printed): – (9.91 – 22.6) nmol/L
- Plasma concentration compared with AT concentration (times higher) (24 h post dosing): approximately 10
- Ratio ATC24/PlasmaC24, range across dose groups (24 h post dosing): 8.58—11.4
- Kp at 10 h (subcutaneous adipose tissue / plasma, 40 mg single dose): 10.1
- Kp at 24 h (subcutaneous adipose tissue / plasma, 40 mg single dose, 24 h): 8.58
- Kp at 10 h (subcutaneous adipose tissue / plasma, 80 mg single dose): 8.36
- Kp at 24 h (subcutaneous adipose tissue / plasma, 80 mg single dose, 24 h): 9.62
- Kp at 10 h (subcutaneous adipose tissue / plasma, 160 mg single dose): 13.7
- Kp at 24 h (subcutaneous adipose tissue / plasma, 160 mg single dose, 24 h): 10.3
- Kp at 24 h (subcutaneous adipose tissue / plasma, 240 mg single dose, 24 h): 9.96
- Kp at 10 h (subcutaneous adipose tissue / plasma, 360 mg single dose): 16.2
- Kp at 24 h (subcutaneous adipose tissue / plasma, 360 mg single dose, 24 h): 11.4
- Kp at 10 h (subcutaneous adipose tissue and plasma, 240 mg single dose): 25.1
- Kp at 10 h (subcutaneous adipose tissue, 10 mg single dose): 10.3
- concentration at 10 h (subcutaneous adipose tissue, 10 mg single dose, adipose tissue): 17.9 nM
- Kp at 10 h (subcutaneous adipose tissue, 20 mg single dose): 9.97
- Kp at 24 h (subcutaneous adipose tissue, 20 mg single dose, 24 h): 10.8
- concentration at 10 h (subcutaneous adipose tissue, 20 mg single dose, adipose tissue): 38.1 nM
- concentration at 24 h (subcutaneous adipose tissue, 20 mg single dose, adipose tissue, 24 h): 17.5 nM
- concentration at 10 h (subcutaneous adipose tissue, 40 mg single dose, adipose tissue): 80.3 nM
- concentration at 24 h (subcutaneous adipose tissue, 40 mg single dose, adipose tissue, 24 h): 27.5 nM
- concentration at 10 h (subcutaneous adipose tissue, 80 mg single dose, adipose tissue): 128 nM
- concentration at 24 h (subcutaneous adipose tissue, 80 mg single dose, adipose tissue, 24 h): 84.5 nM
- concentration at 10 h (subcutaneous adipose tissue, 160 mg single dose, adipose tissue): 412 nM
- concentration at 24 h (subcutaneous adipose tissue, 160 mg single dose, adipose tissue, 24 h): 168 nM
- concentration at 10 h (subcutaneous adipose tissue, 240 mg single dose, adipose tissue): 653 nM
- concentration at 24 h (subcutaneous adipose tissue, 240 mg single dose, adipose tissue, 24 h): 212 nM
- concentration at 10 h (subcutaneous adipose tissue, 360 mg single dose, adipose tissue): 857 nM
- concentration at 24 h (subcutaneous adipose tissue, 360 mg single dose, adipose tissue, 24 h): 307 nM
